Reference: patent publication US6544727B1, “Methods and devices for the removal of psoralens from blood products” (Cerus Corporation, priority 1995, dated 2003)
Entries after “also recorded” stand apart in the source; their conditions may differ.

Columns and labels:
[1] = tested on: Salmonella typhimurium tester strains; assay: Ames Salmonella dark mutagenicity test, overall assessment; format: cell-based; conditions: two-fold or greater increase in revertants above background and dose dependence
Protocol: A brief description for each procedure is given here. […] TA97a, TA98, TA1537 and TA1538 are frameshift tester strains. TA100 and TA102 are base-substitution tester strains.
This served as the background controls.
For all experiments, the pre-incubation procedure was used.

R17 bacteriophage = R17 bacteriophage inactivation assay, varying compound concentration; format: cell-based; conditions: for R17 inactivation efficiency compared with AMT or 8-MOP (in words): varying concentration, Tables 6-9, FIGS. 6-10
Method in brief: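 R17 phage (10^9/mL in DMEM with 15% FBS) mixed with compound at 4–320 μM and irradiated 1–10 min. Surviving phage titred by serial dilution and plaque assay on Hfr 3000 bacteria after overnight incubation at 37 °C; controls were untreated phage, UV without compound, and compound without irradiation.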

[2] = tested on: Chinese hamster ovary (CHO) cells; assay: In vitro genotoxicity screen in CHO cells; conditions: approximately 3 hours exposure in the dark
Source text: In such studies, cells are exposed to chemicals with and/or without rat S-9 metabolic activation system (S-9) and are later examined for either cell survival (for a genotoxicity screen) or for changes in chromosome structure (for a chromosome aberration assay).
Chinese hamster ovary (CHO; ATCC CCL 61 CHO-K1, proline-requiring) cells were used for the in vitro genotoxicity and chromosomal aberration tests. CHO cells are used extensively for cytogenic testing because they have a relatively low number of chromosomes (2n=20) and a rapid rate of multiplication (˜12 to 14 hours, depending on culture conditions). The cells were grown in an atmosphere of 5% CO2 at approximately 37° C. in McCoy's 5a medium with 15% fetal bovine serum (FBS), 2 mM L-glutamine, and 1% penicillin-streptomycin solution to maintain exponential growth. This medium was also used during exposure of the cells to the test compound when no S-9 was used. Cell cultures were maintained and cell exposures were performed in T-75 or T-25 flasks.
Each of the sample compounds were tested at seven dilutions, 1, 3, 10, 33, 100, 333, and 1000 μg/ml. […]
After approximately 2.5 hours in colchicine, the cells were harvested. […] The cell density and metaphase quality on the initial slide from each flask was monitored using a phase-contrast microscope; at least two slides of appropriate cell density were prepared from each flask. […]

[3] = tested on: Duck Hepatitis B Virus (DHBV); assay: Inactivation of Duck Hepatitis B Virus in platelet concentrate, read by PCR amplification; format: biochemical; conditions: 5 J/cm^2 UVA
Protocol: DHBV in duck yolk was added to platelet concentrate (PC) to a final concentration of 2×10^7 particles per mL and mixed by gentle rocking for ≧15 min. […] Samples, including controls without added psoralen, were irradiated with 5 J/cm^2 UVA, with mixing at 1 J/cm^2 increments. After irradiation, leukocytes and platelets were separated from virus by centrifugation. The supernatant containing DHBV was digested overnight with 50 μg/mL proteinase K in a buffer containing 0.5% sodium dodecyl sulphate, 20 mM Tris buffer, pH 8.0, and 5 mM EDTA at 55° C. Samples were extracted with phenol-chloroform and chloroform, followed by ethanol precipitation. Purified DNA was then used in PCR amplification reactions with a starting input of 10^6 DHBV genomes from each sample. […] The amplification was followed by a 7 min incubation at 72° C. to yield full length products. [[…]-^32P] dCTP was added at an amount of […] in order to detect and quantify the resulting products. Products were separated by electrophoresis on denaturing polyacrylamide slab gels and counted. The absence of signal in a given reaction was taken to indicate effective inactivation of DHBV.

p-selectin (GMP140) = assay: GMP-140 (p-selectin) expression on platelets, flow cytometry with CD62; format: cell-based, human; conditions: 100 μM compound, 5 Joules/cm^2, 5 days storage; FIGS. 21C-24C
Protocol: To measure the effects of the present compounds and methods of decontamination on platelet function using these four indicators, four samples were prepared for each compound tested, two control samples and two containing compound. Three units of human platelets were obtained from the Sacramento Blood Center, Sacramento, Calif. These were each transferred under sterile conditions to 50 ml centrifuge tubes, then aliquots of each unit were transferred into a second set of 50 ml sterile centrifuge tubes. To each centrifuge tube containing platelet concentrate (PC), an aliquot of compound stock was added to reach a final concentration of 100 μM of compound. […] The samples were pipetted gently up and down to mix. Then aliquots (either 3 ml or 8 ml) of each sample was transferred to two sterile Teflon™ Medi-bags™ (American Fluoroseal Co., Silver Springs, Md.) (presently owned by The West Company, Lionville, Pa.). Samples were treated in one of two different sized bags, having either 3 ml or 8 ml capacity. […] For each compound tested, two control samples without compound were prepared by again removing aliquots of platelet concentrate (17 ml if using an 8 ml bag, […] if using a 3 ml bag) from the same one of the first set of 50 ml centrifuge tubes from which the compound sample was drawn, and dividing into Medibags, as before. One of each pair of Medibags containing a compound, and one of each pair of control Medibags, were illuminated for 5 Joules/cm^2 on the device described in Example 1, above. Then all experimental and control Medibags were placed on a platelet shaker for storage for 5 days. The same experiments were repeated several times to obtain more statistically meaningful data, as represented by “n”, the number of data points represented, in the graphs of FIGS. 21-24, discussed below.

platelets = assay: Platelet count, Sysmex cell counter; format: cell-based, human; conditions: 100 μM compound, 5 Joules/cm^2, Day 5; FIGS. 21A-24A
Protocol: Samples were diluted 1:3 in blood bank saline.

[4] = 8 μM, starting titer approx. 7.2 logs, 1 minute irradiation (Table 7)
[5] = 16 μM, starting titer approx. 7.1 logs, 1 minute irradiation (Table 9)
[6] = 16 μM, starting titer approx. 7.1 logs, 1 minute irradiation = 1.2 J/cm^2 (Table 8)
[7] = 16 μM, starting titer approx. 7.2 logs, 1 minute irradiation (Table 7)
[8] = 32 μM, starting titer approx. 7.1 logs, 1 minute irradiation = 1.2 J/cm^2 (Table 8)
[9] = 32 μM, starting titer approx. 7.2 logs, 1 minute irradiation (Table 7)

Row | SMILES | mutagenic response in the Ames assay (in words) [1] | R17 Log Kill (R17 bacteriophage; [4]) [log] | R17 Log Kill (R17 bacteriophage; [5]) [log] | R17 Log Kill (R17 bacteriophage; [6]) [log] | R17 Log Kill (R17 bacteriophage; [7]) [log] | R17 Log Kill (R17 bacteriophage; 32 μM, starting titer approx. 7.1 logs, 1 minute irradiation (Table 9)) [log] | R17 Log Kill (R17 bacteriophage; [8]) [log] | R17 Log Kill (R17 bacteriophage; [9]) [log] | R17 log kill (32 μM) (R17 bacteriophage; 32 μM, starting titer approx. 7.5 logs, 1 minute irradiation) [log] | concentration at which the compound was genotoxic (toxic dose) [2] [µg/mL] | PCR of the 1072 bp DHBV amplicon ([3]; 35 mM final concentration (so in the source)) | PCR of the 1072 bp DHBV amplicon ([3]; 70 and 100 mM levels (so in the source)) | R17 inactivation efficiency compared with AMT or 8-MOP (in words) (R17 bacteriophage) | GMP-140 expression, treated sample (PCD) against day 5 untreated control (in words) (p-selectin (GMP140)) | PCR of the 1072 bp DHBV amplicon ([3]; all concentrations (35, 70, and 100 mM as printed), platelet concentrate) | PCR of the smaller DHBV amplicons (127 bp, 327 bp) compared with AMT ([3]; same concentrations) | platelet count, treated against controls (in words) (platelets) | R17 Log Kill (R17 bacteriophage; 8 μM, starting titer approx. 7.1 logs, 1 minute irradiation (Table 9)) [log] | R17 Log Kill (R17 bacteriophage; 64 μM, starting titer approx. 7.1 logs, 1 minute irradiation = 1.2 J/cm^2 (Table 8)) [log]
1 | Cc1oc2c(C)c3oc(=O)cc(C)c3cc2c1CN [AMT, 4′-Aminomethyl-4,5′,8-trimethylpsoralen, reference compound] | showed frameshift mutagenicity at between 5 and 10 μg/plate in TA97a and TA98, at 5 μg/plate in TA1537 and at 1 μg/plate in TA1538; also recorded: no significant base-substitution mutations | 2.7 | >6 | 4.5 | 4.6 | >6 | 4.8 | >6.2 | >6.7 | 30 | a signal could be detected | inhibited PCR amplification |  |  |  |  |  |  | 
2 | Cc1oc2c(C)c3oc(=O)cc(C)c3cc2c1COCCN [Compound 2, 4′-(4-amino-2-oxa)butyl-4,5′,8-trimethylpsoralen] | weak frameshift mutagenicity in the presence of S9 in TA98 and TA1537 | 3.8 |  |  | >6.2 |  |  | >6.2 |  |  |  |  | significantly higher inactivation efficiency than does AMT | little or no difference | complete inhibition of PCR | inhibited PCR of the smaller amplicons better than did AMT |  |  | 
3 | Cc1oc2c(C)c3oc(=O)cc(C)c3cc2c1CNCCCCN [Compound 6, 4′-(6-amino-2-aza)hexyl-4,5′,8-trimethylpsoralen] | no base substitution mutagenicity; also recorded: frameshift response in TA98 in the presence of S9 at concentrations of 250 μg/plate and above |  | >6 | >6.1 |  |  | >6.1 |  |  | 100 |  |  | significantly higher inactivation efficiency than does AMT | little or no difference |  |  | higher platelet count than samples treated with light alone; also recorded: counts equivalent to the 5 day control | >6 | >6.1
4 | Cc1cc(=O)oc2c(C)c3oc(COCCN)c(C)c3cc12 [Compound 18, 5′-(4-amino-2-oxa)butyl-4,4′,8-trimethylpsoralen] | only a weak response at high concentrations in the presence of S9 |  |  |  |  |  |  |  |  |  |  |  |  | notable increase above the control |  |  | higher platelet count than samples treated with light alone |  | 
